Assay results as given in patent US7582611B2, “Motilide compounds” (Pfizer Inc., priority 2005, dated 2009).
Converted amounts (≈) assume the structure as drawn. Read-outs that look alike come from different tables or passages of the source.

Tests used:
Motilin Receptor = target: T1, Motilin Receptor (Oryctolagus cuniculus, UniProt G1T803); test: Tissue based assay for motilin agonist potency (rabbit duodenum contractility); type: cell-based
T1 construct: strips of longitudinal smooth muscle were sliced from the segments; from tissue; host or cells: rabbit duodenum longitudinal smooth muscle strips
Procedure: The motilin agonist potencies of compounds of this invention were evaluated using a tissue based assay, using rabbit duodenum tissue-based contractility assay, generally following the procedure of Depoortere et al., J. Gastrointestinal Motility, 1, 150-159 (1989), the disclosure of which is incorporated herein by reference. Briefly, this method measures the ability of a compound to induce contractions in rabbit duodenal tissue, a motilin receptor-bearing tissue contractilely responsive to motilin.
Strips of rabbit duodenum were tested and qualified for use in the assay by as follows. Segments of rabbit duodenum, 20-30 cm distal to the pylorus were split longitudinally. The mucosa was removed and 2×2×15 mm strips of longitudinal smooth muscle were sliced from the segments. The strips were bathed in oxygenated Krebs solution at 37° C., with 1.5 g of tension, and contractions measured auxotonically.
The carbachol was then washed away by changing the organ bath buffer twice. The strips were washed again 20±5 minutes following the carbachol contraction. Following this last wash a dose response study was initiated within 10±5 min. Each compound tested was dissolved in dimethylsulfoxide (DMSO) to a final concentration of 10 mM. A series of seven 10× serial dilutions in water was prepared, so that the concentration of the seventh serial dilution was 1.0×10^−6 mM. The first through fifth serial dilutions of the compound were applied, starting with 200 μL of the most dilute solution. After each application, there was a wait of 2±0.5 min, until the response was stable, before the application of the next dose (the next higher concentration serial dilution). The dose was increased in 10-fold increments until a small response was observed. Subsequent doses were the increased in 2- to 5-fold increments, until the maximum response was obtained. At 2±0.5 min after the last drug addition, the strips were dosed with 1 μM carbachol.
The EC50 (concentration producing a half-maximal effect) was calculated as follows. The basal tension was subtracted from the compound-induced tension for each reading. The data points were normalized against the response obtained from 1 μM carbachol at the end of the experiment. The concentration of compound was plotted against the response and fitted to the following equation: R=(Rmax·C)/(EC50+C) where R is the contraction response, Rmax is the maximal contraction response, and C is the concentration of compound. Both R and Rmax are expressed as a fraction of the 1 μM carbachol contraction and range from 0 to 1.

[1] = tested on: Streptococcus pneumoniae ATCC 6301; test: Evaluation of antibacterial activity (MIC, serial dilutions on 96-well microtiter plates); type: cell-based; conditions: ATCC6301, read-out: Antibacterial Activity (MIC, μg/mL)
[2] = rabbit duodenum strips, contraction normalized to 1 μM carbachol, read-out: Motilin Receptor Agonist Activity (EC50)

T1 sequence (G1T803 1-400): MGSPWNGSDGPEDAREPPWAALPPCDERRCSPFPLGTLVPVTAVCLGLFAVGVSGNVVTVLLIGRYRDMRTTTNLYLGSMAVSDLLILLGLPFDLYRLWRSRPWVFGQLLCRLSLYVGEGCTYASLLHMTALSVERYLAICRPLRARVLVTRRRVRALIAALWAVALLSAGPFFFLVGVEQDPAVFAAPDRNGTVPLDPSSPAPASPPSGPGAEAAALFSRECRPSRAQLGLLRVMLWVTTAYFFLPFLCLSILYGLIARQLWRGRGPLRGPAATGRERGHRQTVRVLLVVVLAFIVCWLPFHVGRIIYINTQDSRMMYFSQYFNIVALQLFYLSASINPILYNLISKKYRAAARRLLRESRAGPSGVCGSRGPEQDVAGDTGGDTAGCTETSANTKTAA

| SMILES | EC50 (Motilin Receptor; [2]) [nM] | MIC [1] [µg/mL] | EC50 (Motilin Receptor) [nM] |
| --- | --- | --- | --- |
| CC[C@H]1OC(=O)[C@H](C)[C@@H](O[C@H]2C[C@@](C)(OC)[C@@H](O)[C@H](C)O2)[C@H](C)[C@@H](O[C@@H]2O[C@H](C)C[C@H](N(C)C3CCC3)[C@H]2O)[C@](C)(O)C[C@@H](C)[C@H](OCC(=O)NC)[C@H](C)[C@@H](O)[C@]1(C)O [Compound A-51] | 510 | > 128 |  |
| CC[C@H]1OC(=O)[C@H](C)[C@@H](O[C@H]2C[C@@](C)(OC)[C@@H](O)[C@H](C)O2)[C@H](C)[C@@H](O[C@@H]2O[C@H](C)C[C@H](N(C)C(C)C)[C@H]2O)[C@](C)(O)C[C@@H](C)[C@H](OCCNS(C)(=O)=O)[C@H](C)[C@@H](O)[C@]1(C)O [Compound A-32] | 240 | > 128 |  |
| CC[C@H]1OC(=O)[C@H](C)[C@@H](O[C@H]2C[C@@](C)(OC)[C@@H](O)[C@H](C)O2)[C@H](C)[C@@H](O[C@@H]2O[C@H](C)C[C@H](N(C)C3CCC3)[C@H]2O)[C@](C)(O)C[C@@H](C)[C@H](OCC(N)=O)[C@H](C)[C@@H](O)[C@]1(C)O [Compound A-13] | 220 | > 128 |  |
| CC[C@H]1OC(=O)[C@H](C)[C@@H](O[C@H]2C[C@@](C)(OC)C[C@H](C)O2)[C@H](C)[C@@H](O[C@@H]2O[C@H](C)C[C@H](N(C)C(C)C)[C@H]2O)[C@](C)(O)C[C@@H](C)[C@H](OCC(=O)N(C)C)[C@H](C)[C@@H](O)[C@]1(C)O [Compound A-60] | 190 | 128 (≈ 154 µM) |  |
| CC[C@H]1OC(=O)[C@H](C)[C@@H](O[C@H]2C[C@@](C)(OC)[C@@H](O)[C@H](C)O2)[C@H](C)[C@@H](O[C@@H]2O[C@H](C)C[C@H](N(C)C(C)C)[C@H]2O)[C@](C)(O)C[C@@H](C)[C@H](OCc2csc(C)n2)[C@H](C)[C@@H](O)[C@]1(C)O [Compound A-26] | 480 | 128 (≈ 146 µM) |  |
| CC[C@H]1OC(=O)[C@H](C)[C@@H](O[C@H]2C[C@@](C)(OC)[C@@H](O)[C@H](C)O2)[C@H](C)[C@@H](O[C@@H]2O[C@H](C)C[C@H](N(C)C(C)C)[C@H]2O)[C@](C)(O)C[C@@H](C)[C@H](OCCOC)[C@H](C)[C@@H](O)[C@]1(C)O [Compound A-5] | 320 | 64 (≈ 77.9 µM) |  |
| CC[C@H]1OC(=O)[C@H](C)[C@@H](O[C@H]2C[C@@](C)(OC)[C@@H](O)[C@H](C)O2)[C@H](C)[C@@H](O[C@@H]2O[C@H](C)C[C@H](N(C)C(C)C)[C@H]2O)[C@](C)(O)C[C@@H](C)[C@H](OCCCCCC(=O)NC)[C@H](C)[C@@H](O)[C@]1(C)O [Compound A-76] | 150 | 128 (≈ 144 µM) |  |
| CC[C@H]1OC(=O)[C@H](C)[C@@H](O[C@H]2C[C@@](C)(OC)[C@@H](O)[C@H](C)O2)[C@H](C)[C@@H](O[C@@H]2O[C@H](C)C[C@H](N(C)C(C)C)[C@H]2O)[C@](C)(O)C[C@@H](C)[C@H](OCC(=O)NC(C)C)[C@H](C)[C@@H](O)[C@]1(C)O [Compound A-53] | 140 | 128 (≈ 148 µM) |  |
| CC[C@H]1OC(=O)[C@H](C)[C@@H](O[C@H]2C[C@@](C)(OC)[C@@H](O)[C@H](C)O2)[C@H](C)[C@@H](O[C@@H]2O[C@H](C)C[C@H](N(C)C(C)C)[C@H]2O)[C@](C)(O)C[C@@H](C)[C@H](NS(=O)(=O)C(F)(F)F)[C@H](C)[C@@H](O)[C@]1(C)O [Compound A-43] | 330 | 64 (≈ 71.5 µM) |  |
| CC[C@H]1OC(=O)[C@H](C)[C@@H](O[C@H]2C[C@@](C)(OC)[C@@H](O)[C@H](C)O2)[C@H](C)[C@@H](O[C@@H]2O[C@H](C)C[C@H](N(C)C[C@H](C)O)[C@H]2O)[C@](C)(O)C[C@@H](C)[C@H](OCC(=O)O)[C@H](C)[C@@H](O)[C@]1(C)O [Compound A-11] | 740 | > 128 |  |
| CC[C@H]1OC(=O)[C@H](C)[C@@H](O[C@H]2C[C@@](C)(OC)[C@@H](O)[C@H](C)O2)[C@H](C)[C@@H](O[C@@H]2O[C@H](C)C[C@H](N(C)C(C)C)[C@H]2O)[C@](C)(O)C[C@@H](C)[C@H](OCCCCCC(N)=O)[C@H](C)[C@@H](O)[C@]1(C)O [Compound A-50] | 170 | > 128 |  |
| CC[C@H]1OC(=O)[C@H](C)[C@@H](O[C@H]2C[C@@](C)(OC)[C@@H](O)[C@H](C)O2)[C@H](C)[C@@H](O[C@@H]2O[C@H](C)C[C@H](N(C)C)[C@H]2O)[C@](C)(O)C[C@@H](C)C(=O)[C@H](C)[C@@H](O)[C@]1(C)O [Erythromycin A, reference compound] |  | 0.0025 (≈ 0.00341 µM) | 1200 |
| CC[C@H]1OC(=O)[C@H](C)[C@@H](O[C@H]2C[C@@](C)(OC)[C@@H](O)[C@H](C)O2)[C@H](C)[C@@H](O[C@@H]2O[C@H](C)C[C@H](N(C)C(C)C)[C@H]2O)[C@](C)(O)C[C@@H](C)[C@H](NS(C)(=O)=O)[C@H](C)[C@@H](O)[C@]1(C)O [Compound A-35] | 190 | 64 (≈ 76.1 µM) |  |
| CC[C@H]1OC(=O)[C@H](C)[C@@H](O[C@H]2C[C@@](C)(OC)[C@@H](O)[C@H](C)O2)[C@H](C)[C@@H](O[C@@H]2O[C@H](C)C[C@H](N(C)C3CCC3)[C@H]2O)[C@](C)(O)C[C@@H](C)[C@H](NS(C)(=O)=O)[C@H](C)[C@@H](O)[C@]1(C)O [Compound A-39] | 280 | > 128 |  |

The next lines start with results.

| EC50 (Motilin Receptor; [2]) [nM] | MIC [1] [µg/mL] | SMILES | EC50 (Motilin Receptor) [nM] |
| --- | --- | --- | --- |
| 60 | 128 (≈ 142 µM) | CC[C@H]1OC(=O)[C@H](C)[C@@H](O[C@H]2C[C@@](C)(OC)[C@@H](O)[C@H](C)O2)[C@H](C)[C@@H](O[C@@H]2O[C@H](C)C[C@H](N(C)C(C)C)[C@H]2O)[C@](C)(O)C[C@@H](C)[C@H](OCC(=O)Nc2cnccn2)[C@H](C)[C@@H](O)[C@]1(C)O [Compound A-70] |  |
| 140 | 128 (≈ 153 µM) | CC[C@H]1OC(=O)[C@H](C)[C@@H](O[C@H]2C[C@@](C)(OC)[C@@H](O)[C@H](C)O2)[C@H](C)[C@@H](O[C@@H]2O[C@H](C)C[C@H](N(C)C(C)C)[C@H]2O)[C@](C)(O)C[C@@H](C)[C@H](OCC(=O)OC)[C@H](C)[C@@H](O)[C@]1(C)O [Compound A-22] |  |
| 140 | 64 (≈ 68.5 µM) | CC[C@H]1OC(=O)[C@H](C)[C@@H](O[C@H]2C[C@@](C)(OC)[C@@H](O)[C@H](C)O2)[C@H](C)[C@@H](O[C@@H]2O[C@H](C)C[C@H](N(C)C(C)C)[C@H]2O)[C@](C)(O)C[C@@H](C)[C@H](OCC(=O)NCCN2CCOCC2)[C@H](C)[C@@H](O)[C@]1(C)O [Compound A-48] |  |
| 110 | 128 (≈ 149 µM) | CC[C@H]1OC(=O)[C@H](C)[C@@H](O[C@H]2C[C@@](C)(OC)[C@@H](O)[C@H](C)O2)[C@H](C)[C@@H](O[C@@H]2O[C@H](C)C[C@H](N(C)C(C)C)[C@H]2O)[C@](C)(O)C[C@@H](C)[C@H](OCc2cc(C)on2)[C@H](C)[C@@H](O)[C@]1(C)O [Compound A-27] |  |
| 17 | 128 (≈ 156 µM) | CC[C@H]1OC(=O)[C@H](C)[C@@H](O[C@H]2C[C@@](C)(OC)C[C@H](C)O2)[C@H](C)[C@@H](O[C@@H]2O[C@H](C)C[C@H](N(C)C(C)C)[C@H]2O)[C@](C)(O)C[C@@H](C)[C@H](OCC(=O)NC)[C@H](C)[C@@H](O)[C@]1(C)O [Compound A-61] |  |
| 58 | 64 (≈ 76.6 µM) | CC[C@H]1OC(=O)[C@H](C)[C@@H](O[C@H]2C[C@@](C)(OC)[C@@H](O)[C@H](C)O2)[C@H](C)[C@@H](O[C@@H]2O[C@H](C)C[C@H](N(C)C(C)C)[C@H]2O)[C@](C)(O)C[C@@H](C)[C@H](OCC(=O)NC)[C@H](C)[C@@H](O)[C@]1(C)O [Compound A-21] |  |
| 45 | > 128 | CC[C@@H](O)[C@@](C)(O)[C@@H]1OC(=O)[C@@H](C)[C@H](C[C@H]2C[C@@](C)(OC)[C@@H](O)[C@H](C)O2)[C@H](C)[C@@H](OC2O[C@H](C)C[C@H](N(C)C(C)C)[C@H]2O)[C@@]2(C)CC(C)=C(O2)[C@@H]1C (stereo partly shown) [KC-11458, reference compound] |  |
| 52 | 64 (≈ 77.9 µM) | CC[C@H]1OC(=O)[C@H](C)[C@@H](O[C@H]2C[C@@](C)(OC)[C@@H](O)[C@H](C)O2)[C@H](C)[C@@H](O[C@@H]2O[C@H](C)C[C@H](N(C)C(C)C)[C@H]2O)[C@](C)(O)C[C@@H](C)[C@H](OCC(N)=O)[C@H](C)[C@@H](O)[C@]1(C)O [Compound A-12] |  |
| 79 | 128 (≈ 140 µM) | CC[C@H]1OC(=O)[C@H](C)[C@@H](O[C@H]2C[C@@](C)(OC)[C@@H](O)[C@H](C)O2)[C@H](C)[C@@H](O[C@@H]2O[C@H](C)C[C@H](N(C)C(C)C)[C@H]2O)[C@](C)(O)C[C@@H](C)[C@H](OCC(=O)NCc2ccccc2)[C@H](C)[C@@H](O)[C@]1(C)O [Compound A-59] |  |
